Source: patent publication US20250057958A1, “CYTOTOXICITY TARGETING CHIMERAS FOR CCR2-EXPRESSING CELLS” (GLAXOSMITHKLINE INTELLECTUAL PROPERTY DEVELOPMENT LIMITED, priority 2022, published 2025)

Legend:
[1] = Blood drug concentration analysis (PK) in the in vivo depletion assay; design: species or system human CCR2 (hCCR2) knock-in mice; details: human CCR2 (hCCR2) knock-in, C57 background, mouse, whole blood, LC-MS/MS, IV bolus 0.1 mpk compound + 10 mpk anti-cotinine antibody, 48 hours post-dose, read-out: Exposure of Compound of Formula (I) 48 hours post-dose
Experimental: Human CCR2 (hCCR2) knock-in mice (C57 background) were dosed intravenously with a PBS solution containing a compound of Formula (I) to measure depletion of CCR2 expressing cells in peripheral blood. Peripheral blood from IV dosed mice was also analyzed to determine PK properties of the compounds of Formula (I).
Administration to Animal: Solution formulation of antibody and compound of Formula (I) was injected (bolus injection) to the restrained mouse in the right/left lateral tail vein. Animals were dosed with 0.1 milligram per kilogram (mpk) of the compound of Formula (I) and 10 mpk of the anti-cotinine antibody.
Collection of Blood for PK: Blood was collected at time points 0.25 hour, 2 hours, and […] following administration (50 μL/time point) through retro-orbital bleeding under mild isoflurane anesthesia.
Terminal bleeding at end of experiment (48 hr): Approximately 250 μL of blood in K2EDTA tube and approximately 250 μL of blood in SST (serum separation tube) was collected from each mouse through retro-orbital bleeding under deep isoflurane anesthesia. After bleeding, each mouse was sacrificed by cervical dislocation. The blood distribution at termination was determined as follows: • For PK: 50 μL of K2EDTA blood was transferred to another tube for PK • Flow cytometry: Remaining blood (˜200 μL) was used for flow cytometry analysis. • For serum collection: serum separator tubes (BD) were centrifuged at 4° C., 5000 rpm for 15 minutes. Approximately 100 μL serum was separated and stored at −80° C. for further usage. • Blood drug concentration: Samples collected at the various timepoints (0.25 hr, 2 hr, 24 and 48 hr) were analyzed to determine blood drug concentration.
Blood drug concentration analysis: Drug concentration in blood samples was determined by an LC-MS/MS-based bioanalytical method developed at Syngene. Samples were analyzed on Q-Trap, API-5500 LC-MS/MS system coupled with Exion UHPLC system from SCIEX, USA operated in multiple reaction monitoring mode employing electrospray ionization technique in positive polarity. Analyte and internal standard peaks were resolved on Synergi Polar, 75×2.0 mm, 4 μcolumn using mobile phase 10 mM Ammonium acetate in Milli-Q water as phase A and 0.1% Formic acid in acetonitrile as Phase B. Gradient elution was performed with initial composition 95% Phase A at 0.0 min, holding it for 0.2 minutes, ramping to 5% by 1.0 minute, keeping the same for next 0.5 minutes and coming back to 95% by 1.6 minutes. The total run time was 2 minutes.
Working dilutions for calibration curve and quality control standards were prepared by serially diluting 20 mg/mL stock solution with DMSO. Spiked concentrations for calibration curve in the whole blood ranged from 1 ng/mL to 1000 ng/mL. […]

[2] = target: T1, CHOK1 cells engineered to overexpress human CCR2 (Homo sapiens, UniProt P41597); test: Antibody dependent cellular cytotoxicity (ADCC) reporter assay; format: cell-based; details: with anti-cotinine antibody (SEQ ID NO: 11/12, human IgG1 Fc S239D/I332E); Jurkat FcγRIIIa NFAT-luciferase reporter cells; 12-18 hours; average if more than one run; read-out: ADCC Reporter Assay pEC50 (converted)
T1 construct: expressed in transfected cells; host or cells: CHOK1 cells
Method in brief: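 Target CHOK1 cells overexpressing human CCR2 co-incubated 12-18 h with compound (1 pM–10 μM), anti-cotinine antibody (rabbit variable region, human IgG1 Fc S239D/I332E; 0.01–200 μg/mL) and Jurkat FcγRIIIa NFAT-luciferase reporter cells. Luminescence expressed as signal:background versus no-compound wells; EC50 from nonlinear regression, reported as pEC50 averaged across runs.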

| Structure (SMILES) | concentration at 48 h [1] [ng/mL] | EC50 [2] [nM] |
| --- | --- | --- |
| CC(=O)N[C@@H]1C[C@H](NC(C)(C)C)CC[C@@H]1N1CC[C@H](Nc2nc([C@H]3CC[C@@H](NC(=O)[C@H]4CC[C@H](NC(=O)CCCO[C@H]5CC[C@H](OCCNC(=O)[C@H]6CC(=O)N(C)[C@@H]6c6cccnc6)CC5)CC4)CC3)nc3ccc(C(F)(F)F)cc23)C1=O [Example 10, (2S,3S)-N-(2-(((1R,4S)-4-(4-(((1R,4R)-4-(((1R,4S)-4-(4-(((S)-1-((1S,2R,4R)-2-Acetamido-4-(tert-butylamino)cyclohexyl)-2-oxopyrrolidin-3-yl)amino)-6-(trifluoromethyl)quinazolin-2-yl)cyclohexyl)carbamoyl)cyclohexyl)amino)-4-oxobutoxy)cyclohexyl)oxy)ethyl)-1-methyl-5-oxo-2-(pyridin-3-yl)pyrrolidine-3-carboxamide] | 35.5 | 0.251 |
| CC(=O)N[C@@H]1C[C@H](NC(C)(C)C)CC[C@@H]1N1CC[C@H](Nc2nc(CCCCNC(=O)[C@H]3CC[C@H](NC(=O)CCCO[C@H]4CC[C@H](OCCNC(=O)[C@H]5CC(=O)N(C)[C@@H]5c5cccnc5)CC4)CC3)nc3ccc(C(F)(F)F)cc23)C1=O [Example 3, (2S,3S)-N-(2-(((1R,4S)-4-(4-(((1S,4R)-4-((4-(4-(((S)-1-((1S,2R,4R)-2-Acetamido-4-(tert-butylamino)cyclohexyl)-2-oxopyrrolidin-3-yl)amino)-6-(trifluoromethyl)quinazolin-2-yl)butyl)carbamoyl)cyclohexyl)amino)-4-oxobutoxy)cyclohexyl)oxy)ethyl)-1-methyl-5-oxo-2-(pyridin-3-yl)pyrrolidine-3-carboxamide] | 37.1 | 0.158 |
| CC(=O)N[C@@H]1C[C@H](NC(C)(C)C)CC[C@@H]1N1CC[C@H](Nc2nc([C@H]3CC[C@H](NC(=O)[C@H]4CC[C@H](NC(=O)CCCO[C@H]5CC[C@H](OCCNC(=O)[C@H]6CC(=O)N(C)[C@@H]6c6cccnc6)CC5)CC4)CC3)nc3ccc(C(F)(F)F)cc23)C1=O [Example 11, (2S,3S)-N-(2-(((1R,4S)-4-(4-(((1S,4R)-4-(((1S,4R)-4-(4-(((S)-1-((1S,2R,4R)-2-Acetamido-4-(tert-butylamino)cyclohexyl)-2-oxopyrrolidin-3-yl)amino)-6-(trifluoromethyl)quinazolin-2-yl)cyclohexyl)carbamoyl)cyclohexyl)amino)-4-oxobutoxy)cyclohexyl)oxy)ethyl)-1-methyl-5-oxo-2-(pyridin-3-yl)pyrrolidine-3-carboxamide] | 93.4 | 0.158 |
